The values that follow are results of earlier work, collected in EP3263095A1, “A PHARMACEUTICAL FORMULATION OF OLAPARIB” (Zentiva K.S., priority 2016, dated 2018).

The conditions of the data set: EMA/CHMP/789139/2014.

As for `O=C(c1cc(Cc2n[nH]c(=O)c3ccccc23)ccc1F)N1CCN(C(=O)C2CC2)CC1` [olaparib, 4-[(3-[(4-cyclopropylcarbonyl)piperazin-4-yl]carbonyl)-4-fluorophenyl]methyl(2H)-phtalazin-1-one], the “Group of the Biopharmaceutical Classification System (low solubility and bioavailability)” value was “Group 4”.
